From patent US20050090652A1, “Highly homogenous serum albumin as chiral selector” (priority 2002, published 2005)
Read-outs that look alike come from different tables or passages of the source.

Tests used:
[1] = biological target: T1, recombinant human serum albumin (rHA) immobilised on silica (Homo sapiens, UniProt P02768); conditions: pH 7.5
[2] = biological target: albumin (Homo sapiens, UniProt P02768); conditions: binding to albumin; Peters et al.; Kragh-Hansen 1990; cited from earlier work
albumin, sequence (P02768 25-609, species assumed): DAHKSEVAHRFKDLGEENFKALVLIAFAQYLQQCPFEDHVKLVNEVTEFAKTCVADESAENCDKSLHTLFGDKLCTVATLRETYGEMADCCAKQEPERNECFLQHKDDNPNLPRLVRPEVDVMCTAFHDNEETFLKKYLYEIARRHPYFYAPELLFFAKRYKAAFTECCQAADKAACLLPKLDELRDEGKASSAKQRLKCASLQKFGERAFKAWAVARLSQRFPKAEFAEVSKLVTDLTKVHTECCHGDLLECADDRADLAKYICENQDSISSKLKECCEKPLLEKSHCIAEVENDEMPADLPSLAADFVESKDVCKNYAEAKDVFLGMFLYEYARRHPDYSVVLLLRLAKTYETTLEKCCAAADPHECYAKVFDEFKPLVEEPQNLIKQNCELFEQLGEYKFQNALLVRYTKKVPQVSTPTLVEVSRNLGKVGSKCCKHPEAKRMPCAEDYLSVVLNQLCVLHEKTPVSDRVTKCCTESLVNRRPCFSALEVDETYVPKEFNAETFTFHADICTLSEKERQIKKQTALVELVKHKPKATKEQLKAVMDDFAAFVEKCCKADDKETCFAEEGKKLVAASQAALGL

[3] = biological target: T1, recombinant human serum albumin (rHA) immobilised on silica; test: Enantioselective HPLC analysis by the rHA-based column; conditions: 1-propanol/phosphate buffer (pH 7.5) 15/85 (v/v), 0.6 ml/min flow rate

T1 sequence (P02768 25-609): as the sequence (P02768 25-609, species assumed) above

Molecule	affinity relative to the other enantiomer (antipode) [2] [fold]	further results
CC(C)CC(NC(=O)c1ccccc1)C(=O)O (racemic) [N-benzoyl-DL-leucine]		enantioselectivity (α) [1]: 2.8
O=C(O)CCC(=O)O[C@@H]1N=C(c2ccccc2)c2cc(Cl)ccc2NC1=O [(S)-oxazepam-hemisuccinate]	35	
N[C@@H](Cc1c[nH]c2ccccc12)C(=O)O [L-tryptophan]	100	
rac-lorazepam hemisuccinate		enantioselectivity (α) [3]: 5.3
